The record followed here is patent US11517508B2, “Composition for single-paste type hydraulic endodontic filling material comprising dimethyl sulfoxide” (MARUCHI, priority 2016, dated 2022).

The structures appear in SMILES notation.

The data set has as its system MC3T3-E1 cells. As to the kind of experiment: Cytotoxicity test (MTT) of solvents, material extracts on MC3T3-E1 cells. The data set is classed as cell-based. To be noted: p<0.05, FIG. 1. As to the method: FIG. 1 is a graph of a cytotoxicity test according to one embodiment of the invention. The test will be described with reference to FIG. 1.
A: NMP, B: DMSO, C: DEGEE, and D: DMSO 80%+DEGEE 20%
Cytotoxicity was measured with respect to the above four kinds of solvents by the following method:
(i) A specimen was placed in a mold with a thickness of 2 mm and a diameter of 10 mm, and hardened in an incubator at 37° C. for 3 days. (ii) A material extract was derived by filling the hardened specimen with a medium at a surface area/medium ratio of 0.5 cm^2 per ml and incubating it at 37° C. for 3 days. (iii) 1.5×10^4 MC3T3-E1 cells were seeded per well on a 24-well culture plate and incubated for 24 hours, and then the medium was sucked off. 1 ml of the material extract was placed in each well and set in triplicate. (iv) The material extracts were incubated for 24 hours, 48 hours and 72 hours, respectively, and then the medium was discarded. The material extracts were treated with 200 μl of 0.05% MTT solution, wrapped in aluminum foil, and reacted in the incubator at 37° C. for 2 hours. (v) 200 μl of DMSO was added after the reaction. Then, 200 μl of the reaction solution was transferred to each well in a 96-well plate and absorbance was measured at 590 nm.

[1] abbreviates: all tests and all times (24, 48, 72 hours), compared with NMP groups.

For the compound `CCOCCOCCO` [DEGEE, diethylene glycol monoethyl ether, reference compound], the cell survival rate entry under setting [1] was “higher cell survival rate than groups for which NMP was used as a solvent”. Turning to `C[S+](C)[O-]` [DMSO, dimethyl sulfoxide], the cell survival rate entry is, setting by setting: (48 hours and 72 hours, comparison between solvent groups) “significantly higher cell survival rate than groups for which DEGEE and a mixture of DMSO and DEGEE were used as solvents”; under setting [1], “higher cell survival rate than groups for which NMP was used as a solvent”.
